Measurements taken from patent US20100119599A1 (ARCHER PHARMACEUTICALS, INC., priority 2006, published 2010).
Like-named read-outs stand apart in the source and are kept apart here.

Assays:
Aβ1-40 = assay: Measurement of Aβ1-40 in culture medium of 7W WT APP751 CHO cells by ELISA; type: cell-based, Chinese hamster; settings: for activity at 5 µM: Cricetulus griseus, 5 μM test compound, CHO cells stably transfected with human APP751, culture medium, ELISA, control DMSO; for Aβ1-40 (% of control): CHO cells that overexpress APP751, zero = below the detection limit of the assay;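 for all read-outs here: 5 µM test compound but RI-coded compounds at 10 µM for 24 hours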
Aβ1-42 = assay: Measurement of Aβ1-42 in culture medium of 7W WT APP751 CHO cells by ELISA; type: cell-based, Chinese hamster; settings: for activity at 5 µM: Cricetulus griseus, 5 μM test compound, CHO cells stably transfected with human APP751, culture medium, ELISA, control DMSO; for Aβ1-42 (% of control): CHO cells that overexpress APP751, zero = below the detection limit of the assay;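 for Aβ1-42 (% of control): 5 µM test compound but RI-coded compounds at 10 µM for 24 hours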
[1] = Table 1, 0 = no detectable amount
[2] = Table 1, 0 = no detectable amount, read-out: Aβ1-42 (% of control)

Compound	activity at 5 µM (Aβ1-40; [1])	activity at 5 µM (Aβ1-42; [2])	Aβ1-40 (% of control) (Aβ1-40)	Aβ1-42 (% of control) (Aβ1-42)	also measured
COc1ccc(COC(=O)C2=C(C)NC3=C(C(=O)CCC3)C2c2cccc(C)c2)cc1 (stereo not drawn) [ST052354, (4-methoxyphenyl)methyl 2-methyl-4-(3-methylphenyl)-5-oxo-1,4,6,7,8-pentahydroquinoline-3-carboxylate]	95.1%	57.2%			
CCCCCOC(=O)C1=C(C)NC2=C(C(=O)CC(C)(C)C2)C1c1ccc(OCCC)cc1 (stereo not drawn) [ST217244, pentyl 2,7,7-trimethyl-5-oxo-4-(4-propoxyphenyl)-1,4,6,7,8-pentahydroquinoline-3-carboxylate]	24.9%	41.5%			
CCOC(=O)C1=C(C)N(C)C(C)=C(C(=O)OCC)C1c1ccccn1 [ST052366, ethyl 5-(ethoxycarbonyl)-1,2,6-trimethyl-4-(2-pyridyl)-1,4-dihydropyridine-3-carboxylate]			56.21 % of control	89.76 % of control	
CC(C)Oc1ccc(/C=c2\sc3n(c2=O)C(N)=C(C#N)C(c2ccc(OC(C)C)cc2)C=3C#N)cc1 (stereo not drawn) [ST025026, 5-amino-7-[4-(methylethoxy)phenyl]-2-{[4-(methylethoxy)phenyl]methylene}-3-oxo-4,7-dihydro-1,3-thiazolidino[3,2-a]pyridine-6,8-dicarbonitrile]			26.82 % of control	0 % of control	
COc1ccc(OC)c(C2C(C(=O)OCCc3ccccc3)=C(C)NC3=C2C(=O)CCC3)c1 (stereo not drawn) [ST052373, 2-phenylethyl 4-(2,5-dimethoxyphenyl)-2-methyl-5-oxo-1,4,6,7,8-pentahydroquinoline-3-carboxylate]	39.4%	37.4%			
CCc1ccc(C2C(C(=O)OC3CCCCC3)=C(C)NC3=C2C(=O)CC(c2ccccc2)C3)cc1 (stereo not drawn) [ST013389, cyclohexyl 4-(4-ethylphenyl)-2-methyl-5-oxo-7-phenyl-1,4,6,7,8-pentahydroquinoline-3-carboxylate]	37.4%	94.4%			
COCCOC(=O)C1=C(C)NC2=C(C(=O)CCC2)C1c1cc(OC)c(OC)cc1Br (stereo not drawn) [ST052462, 2-methoxyethyl 4-(2-bromo-4,5-dimethoxyphenyl)-2-methyl-5-oxo-1,4,6,7,8-pentahydroquinoline-3-carboxylate]	61.8%	94.3%			
CCOC(=O)C1=C(N)n2c(s/c(=C/c3ccc(C(C)C)cc3)c2=O)=C(C(=O)OCC)C1c1ccc(C(C)C)cc1 (stereo not drawn) [ST011764, ethyl 5-amino-6-(ethoxycarbonyl)-7-[4-(methylethyl)phenyl]-2-{[4-(methylethyl)phenyl]methylene}-3-oxo-4,7-dihydro-1,3-thiazolidino[3,2-a]pyridine-8-carboxylate]			83.4 % of control	70.37 % of control	
COc1ccccc1C1C(C(=O)OC(C)C)=C(C)NC2=C1C(=O)CC(c1ccccc1)C2 (stereo not drawn) [ST017220, methylethyl 4-(2-methoxyphenyl)-2-methyl-5-oxo-7-phenyl-1,4,6,7,8-pentahydroquinoline-3-carboxylate]	60.9%	99.6%			
COC(=O)C1=C(C)NC2=C(C(=O)CC(c3ccc(Cl)cc3)C2)C1c1ccc(OCc2ccccc2)cc1 (stereo not drawn) [ST016953, methyl 7-(4-chlorophenyl)-2-methyl-5-oxo-4-[4-(phenylmethoxy)phenyl]-1,4,6,7,8-pentahydroquinoline-3-carboxylate]	43.9%	69.7%			
COC(=O)C1=C(C)NC2=C(C(=O)CC(c3ccc(Cl)cc3)C2)C1c1ccccc1 (stereo not drawn) [ST015218, methyl 7-(4-chlorophenyl)-2-methyl-5-oxo-4-phenyl-1,4,6,7,8-pentahydroquinoline-3-carboxylate]	59.3%	0%			
COC(=O)C1=CN(Cc2ccc3c(c2)OCO3)C=C(C(=O)OC)C1c1cccs1 [ST038112, methyl 1-(2H-benzo[3,4-d]1,3-dioxolen-5-ylmethyl)-5-(methoxycarbonyl)-4-(2-thienyl)-1,4-dihydropyridine-3-carboxylate]			47.7 % of control	99.52 % of control	
CC1=C(C(=O)Nc2ccccc2)C(c2ccsc2)C(C#N)=C(SCC(=O)Nc2ccc(F)cc2)N1 (stereo not drawn) [RI_77]			16.9 % of control	25.4 % of control	
CC(=O)C1=C(C)NC(S)=C(C#N)C1c1ccccc1[N+](=O)[O-] (stereo not drawn) [ST011628, 5-acetyl-6-methyl-4-(2-nitrophenyl)-2-sulfanyl-1,4-dihydropyridine-3-carbonitrile]			74.07 % of control	76.9 % of control	
N#CC(C#N)=CC=C1C=CN(C2CCCCC2)C=C1 [ST019328]					activity at 5 µM (Aβ1-40; Table 3): 59%; activity at 5 µM (Aβ1-42; Table 3, read-out: Aβ-42 (% of control)): 92.2%
CCc1cccc(NC(=O)CSC2=C(C#N)C(c3cccs3)C(C(=O)Nc3ccccc3)=C(C)N2)c1 (stereo not drawn) [RI_45]			82.7 % of control	61.3 % of control	
N#CC1=C(N)NC(SCC(N)=O)=C(C#N)C1c1cccs1 (stereo not drawn) [RI_4]			92.2 % of control	64.7 % of control	

Compound	activity at 5 µM (Aβ1-40; [1])	activity at 5 µM (Aβ1-42; [2])	Aβ1-40 (% of control) (Aβ1-40)	Aβ1-42 (% of control) (Aβ1-42)	also measured
COC(=O)C1=C(C)NC2=C(C(=O)CC(c3cccs3)C2)C1c1ccc(C(F)(F)F)cc1 (stereo not drawn) [ST052493, methyl 2-methyl-5-oxo-7-(2-thienyl)-4-[4-(trifluoromethyl)phenyl]-1,4,6,7,8-pentahydroquinoline-3-carboxylate]	39.9%	57.1%			
CC1=C(C(=O)OCCc2ccccc2)C(c2ccc(C)s2)C2=C(CC(C)(C)CC2=O)N1 (stereo not drawn) [ST052344, 2-phenylethyl 2,7,7-trimethyl-4-(5-methyl(2-thienyl))-5-oxo-1,4,6,7,8-pentahydroquinoline-3-carboxylate]	24.1%	24.4%			
CC1=C(C(=O)Nc2ccccc2)C(c2cccs2)C(C#N)=C(SCC(=O)Nc2cc(C)cc(C)c2)N1 (stereo not drawn) [RI_11]			52.1 % of control	35.8 % of control	
N#CC1=C(N)NC(S)=C(C#N)C1c1cccc(Br)c1 (stereo not drawn) [ST014065, 6-amino-4-(3-bromophenyl)-2-sulfanyl-1,4-dihydropyridine-3,5-dicarbonitrile]			18.6 % of control	30.01 % of control	
CC1=C(C(=O)OCCOc2ccccc2)C(c2ccc(C)s2)C2=C(CCCC2=O)N1 (stereo not drawn) [ST052280, 2-phenoxyethyl 2-methyl-4-(5-methyl(2-thienyl))-5-oxo-1,4,6,7,8-pentahydroquinoline-3-carboxylate]	73.6%	37.7%			
CCCOC(=O)C1=C(C)NC2=C(C(=O)CCC2)C1c1ccc(Br)cc1 (stereo not drawn) [ST017259, propyl 4-(4-bromophenyl)-2-methyl-5-oxo-1,4,6,7,8-pentahydroquinoline-3-carboxylate]	65.5%	87%			
CC1=C(C(=O)Nc2ccc(Cl)cc2)C(c2ccsc2)C(C#N)=C(SCC(=O)Nc2cccc(C)c2)N1 (stereo not drawn) [RI_14]			56.3 % of control	64.1 % of control	
CCc1ccc(NC(=O)CSC2=C(C#N)C(c3ccsc3)C(C(=O)Nc3ccccc3)=C(C)N2)cc1 (stereo not drawn) [RI_62]			91.6 % of control	62.4 % of control	
CCC(C)OC(=O)C1=C(C)NC2=C(C(=O)CC(c3ccc(OC)cc3)C2)C1c1cc2c(cc1[N+](=O)[O-])OCO2 (stereo not drawn) [ST017236, methylpropyl 7-(4-methoxyphenyl)-2-methyl-4-(6-nitro(2H-benzo[d]1,3-dioxolan-5-yl))-5-oxo-1,4,6,7,8-pentahydroquinoline-3-carboxylate]	61%	98.1%			
CCCOc1ccccc1C1C(C(=O)OCCc2ccccc2)=C(C)NC2=C1C(=O)CC(C)(C)C2 (stereo not drawn) [ST015048, 2-phenylethyl 2,7,7-trimethyl-5-oxo-4-(2-propoxyphenyl)-1,4,6,7,8-pentahydroquinoline-3-carboxylate]	37.9%	88.7%			
CCSCCOC(=O)C1=C(C)NC2=C(C(=O)CC(c3ccccc3)C2)C1c1ccc(Br)cc1 (stereo not drawn) [ST017201, 2-ethylthioethyl 4-(4-bromophenyl)-2-methyl-5-oxo-7-phenyl-1,4,6,7,8-pentahydroquinoline-3-carboxylate]	57.5%	85.2%			
CCCOc1ccccc1C1C(C(=O)OCC(C)C)=C(C)NC2=C1C(=O)CC(c1ccc(Cl)cc1)C2 (stereo not drawn) [ST017026, 2-methylpropyl 7-(4-chlorophenyl)-2-methyl-5-oxo-4-(2-propoxyphenyl)-1,4,6,7,8-pentahydroquinoline-3-carboxylate]	40.6%	80.6%			
CC1=C(C(=O)OC2CCCCC2)C(c2cccc(Cl)c2)C2=C(CCCC2=O)N1 (stereo not drawn) [ST015159, cyclohexyl 4-(3-chlorophenyl)-2-methyl-5-oxo-1,4,6,7,8-pentahydroquinoline-3-carboxylate]	2.98%	0%			
COC(=O)C1=C(C)NC2=C(C(=O)CC(C)(C)C2)C1c1cccnc1 (stereo not drawn) [ST013059, methyl 2,7,7-trimethyl-5-oxo-4-(3-pyridyl)-1,4,6,7,8-pentahydroquinoline-3-carboxylate]	26.7%	76.1%			
COc1ccc(C2C(C#N)=C(N)NC(C(C#N)C#N)=C2C#N)cc1OC (stereo not drawn) [ST025482, 6-amino-2-(dicyanomethyl)-4-(3,4-dimethoxyphenyl)-1,4-dihydropyridine-3,5-dicarbonitrile]			62.83 % of control	45.1 % of control	
CC1=C(C(=O)OCCOc2ccccc2)C(c2ccccc2Br)C2=C(CCCC2=O)N1 (stereo not drawn) [ST052219, 2-phenoxyethyl 4-(2-bromophenyl)-2-methyl-5-oxo-1,4,6,7,8-pentahydroquinoline-3-carboxylate]	14%	24.7%			
